{"source": "patent US10136641B2", "about": "“Methods for increasing tolerance to abiotic stress in plants” (Crop Microclimate Management Inc., priority 2010, dated 2018)", "format_in_all_cases": "in vivo", "key": {"Tomato plants": {"test_system": "Tomato plants", "test": "Tomato pot trial, heat and light stress in the greenhouse", "conditions": "for Avg. growth in cm. (tomato fruits exposed to heat and light stress): April 2-May 10; for Avg growth in cm. (tomato fruits exposed to heat and light stress): April 2-May 18", "method": "Tomato plants were exposed to heat and light stress in the greenhouse. Control plants had no treatment or were treated with Screen, Screen Plus1, Screen Plus2, or Screen Plus3, The experimental plants were treated with azelaic acid at 10^−4 M or 10^−3 M applied alone or in combination with Screen, Screen Plus1, Screen Plus2, or Screen Plus3."}, "citrus": {"test_system": "citrus", "test": "Citrus field trial (heat, light and/or water stress), Cobram, Victoria", "method": "(§1) Field trials were carried out in parts of commercial orchards or fields in Australia during the 2009-2010 season. Crops were evaluated for specific parameters impacted by abiotic stress including fruit diameter, fruit number, amount of sunburn damage and number of flowers aborted. The crops evaluated were apple, citrus, tomato and wine grape. […] Heat and light stress occurred early during the trials, with exposures to 40° C.^+ temperatures in November; about 4-6 weeks after the trials were initiated. This period of stress was followed by varied temperatures including temperatures that were in the mid-to-high 30° C. range.\n(§2) The foliage and fruit for each crop were assessed prior to treatment and then at regular intervals through the season for any signs of phytotoxicity. No phytotoxicity was observed on either the foliage or the fruit for any of the applied formulations for any of the crops. In addition, all trials were determined to be disease and pest free.\n(§3) Screen (kaolin), Screen Duo (kaolin and salicylate), Surround (kaolin) and Parasol (calcium carbonate) are standard treatments used in the management of heat, light and water stress. Kaolin and calcium carbonate reduce stress by reflecting UV, visible, and infrared radiation, thereby reducing the impact of excess heat and light on photosynthesis and other cellular processes.\n(§4) The citrus and apple trials received four and five applications, respectively, of the various formulations, set forth in Table 1 (below), prior to experiencing abiotic stress. Tomatoes received biweekly applications of the treatments throughout the trial.\nIn general, a lower fruit load results in greater fruit diameter at harvest. Early season differences in fruit diameter are due to variation in cell division. It is well documented that at equal fruit load, heat stress will result in smaller fruit (i.e., reduced fruit diameter). In addition, heat, light, and/or water stress can also result in fruit number losses, commonly known in citrus as “June drop.” Past studies indicate that protecting the crop with Screen/Duo starting at petal fall can result in larger fruit and higher numbers of fruit, most likely by reducing the crop temperature and reducing stress signaling reactive oxygen (ROX).\nThe trial described below was conducted in Cobram, Victoria, Australia. Several parameters were measured as responses to heat, light and/or water stress: early citrus fruit diameter, number of fruit per cubic meter foliage, percent sunburn, later season fruit diameter and kilograms of fruit per cubic meter foliage. Sunburn damage is the late stage result of combined heat and light stress. […] There was little correlation observed between fruit number and fruit size (correlation […])."}, "tomato": {"test_system": "tomato", "test": "Tomato field trial (flower abortion, sunburn, yield), Echuca, Victoria", "method": "as §1\nThe foliage and fruit for each crop were assessed prior to treatment and then at regular intervals through the season for any signs of phytotoxicity.\nKaolin and calcium carbonate reduce stress by reflecting UV, visible, and infrared radiation, thereby reducing the impact of excess heat and light on photosynthesis and other cellular processes.\nas §4\nFlower abortion in tomato results in significant yield losses in tomato and begins at temperatures of 28 C, becoming more severe as temperatures rise. Further, once fruit has developed, it is susceptible to damage from heat and light, expressed as sunburn.\nIn the present study, tomatoes, located in a commercial field outside Echuca, Victoria, Australia, were treated with azeleic acid (CMM2009A). The number of aborted flowers per plot was assessed periodically during the season. Tomato yield and sunburn damage was assessed as follows. Tomatoes from the center of each plot were harvested from a one meter section of the tomato beds. The fruit was visually assessed as being either red in color and suitable for processing, green in color, or sun burnt. The fruit from these three categories were kept separate, weighed and recorded."}, "apple": {"test_system": "apple", "test": "Apple field trial (heat, light and/or water stress), Shepparton, Victoria", "method": "as §1, §2, §3, §4\nAs described above for citrus, early season heat, light and/or water stress can also impede cell division that occurs during Phase I of fruit development of apples. In the apple trial, which was conducted in Shepparton, Victoria, Australia, the load of fruit on each of the trees was thinned to an approximately equal value (approximately 200 fruit per tree; +/−5%), thus eliminating the confounding effect of fruit load on fruit diameter. To assess sunburn/heat stress damage, all apples were harvested from the center tree in each plot and rated according to the following rating system.\nRating Visual Assessment of the Fruit\n1 Slight yellowing on the exposed side (<5% of the fruit area)\n2 Noticeable yellowing on the exposed side (>5% of the fruit area)\n3 Moderate sunburn with pronounced lenticels (fruit unmarketable)\n4 Significant sunburn (fruit unmarketable)"}, "wine grape": {"test_system": "wine grape", "test": "Wine grape field trial (sunburn/heat stress, yield), Kialla, Victoria", "method": "as §1, §2, §3\nThe trial described below was conducted in Kialla, Victoria, Australia. The trial design was a randomized complete block with four replicates. Each plot comprises one panel of vines having four vines. For yield measurements the grapes were harvested from each of the two center vines in each panel and bunch numbers and weights were recorded. For assessment of sunburn/heat stress damage, the bunches of grapes were rated according to the following system: […]"}, "tomatoes": {"test_system": "tomatoes", "test": "Tomato pot study with sebacic acid (high heat, light and water stress)", "method": "A tomato pot study was conducted with sebacic acid to determine the activity of sebacic acid in increasing tolerance to abiotic stress. The tomatoes were grown in a standard medium in pots and subjected to the abiotic stresses of high heat, light, and water stress. Growth of the plants was used as a measure of the ability of the sebacic acid to reduce the impact of abiotic stress. Growth measurements were taken 32 days after treatment with sebacic acid"}, "[1]": {"conditions": "azelaic at 10^−4M where applied, Screen applications at rate equivalent of 25 kg/ha"}, "[2]": {"conditions": "citrus, versus standard treatments"}, "[3]": {"conditions": "apple field trial, rates per Table 3"}, "[4]": {"conditions": "wine grape field trial, 10 Mar. 2010, four applications"}}, "data": [{"molecule": "O=C(O)CCCCCCCC(=O)O", "note": "[Azeleic acid, azelaic acid (nonanedioic acid)]", "values": [{"measurement": "Avg. growth in cm. (tomato fruits exposed to heat and light stress)", "setting": "Tomato plants; azelaic at 10^−3M, no Screen", "value": 8.0, "unit": "cm"}, {"measurement": "Avg. growth in cm. (tomato fruits exposed to heat and light stress)", "setting": "Tomato plants; [1]", "value": 11.0, "unit": "cm"}, {"measurement": "Avg growth in cm. (tomato fruits exposed to heat and light stress)", "setting": "Tomato plants; azelaic at 10^−3M, no Screen", "value": 6.1, "unit": "cm"}, {"measurement": "Avg growth in cm. (tomato fruits exposed to heat and light stress)", "setting": "Tomato plants; [1]", "value": 8.7, "unit": "cm"}, {"measurement": "Protection from the abiotic stress as measured by average fruit size (in words)", "setting": "Tomato plants; tomato pot trial, azelaic acid at 10^−4 M", "value": "equivalent to or better than the standard treatments"}, {"measurement": "Fruit Number per cubic meter", "setting": "citrus; citrus field trial, 6 Jan. 2010, per cubic meter foliage, four applications, rates per Table 2", "value": 10.62, "unit": "per cubic meter"}, {"measurement": "Fruit Diameter (mm)", "setting": "citrus; citrus field trial, 12 Apr. 2010 (later season), four applications, rates per Table 2", "value": 71.59, "unit": "mm"}, {"measurement": "Fruit Diameter (mm)", "setting": "citrus; citrus field trial, 14 Dec. 2010 (early fruit diameter), four applications, rates per Rate column of Table 2", "value": 29.49, "unit": "mm"}, {"measurement": "Percent Sunburn", "setting": "citrus; citrus field trial, 28 Jan. 2010, four applications, rates per Table 2", "value": 5.6, "unit": "%"}, {"measurement": "kgs/cubic meter of foliage", "setting": "citrus; citrus field trial, 29 Sep. 2010, kilograms of fruit, four applications, rates per Table 2", "value": "3.8 kgs/cubic meter of foliage"}, {"measurement": "Protecting cell division, as measured by early fruit diameter (in words)", "setting": "citrus; citrus, azelaic acid alone versus Screen, Screen Duo, Surround and Parasol", "value": "as effective as the standard treatments"}, {"measurement": "Protection from sunburn damage (in words)", "setting": "citrus; [2]", "value": "equal to that obtained using the standard treatments"}, {"measurement": "Reducing fruit loss (in words)", "setting": "citrus; [2]", "value": "as effective in reducing fruit loss"}, {"measurement": "Yield Red MT/ha", "setting": "tomato; 12 Mar. 2010, red fruit suitable for processing, ten applications", "value": 131, "unit": "MT/ha"}, {"measurement": "Yield Sunburn MT/ha", "setting": "tomato; 12 Mar. 2010, sun burnt fruit, ten applications", "value": 6.6, "unit": "MT/ha"}, {"measurement": "Soluble Solids MT/ha", "setting": "tomato; 12 Mar. 2010, ten applications", "value": 6.2, "unit": "MT/ha"}, {"measurement": "Total Yield MT/ha", "setting": "tomato; 12 Mar. 2010, ten applications", "value": 137.6, "unit": "MT/ha"}, {"measurement": "Number Sunburn Fruit per plot", "setting": "tomato; 20 Feb. 2010, ten applications, rates per Table 4", "value": 21.3, "unit": "per plot"}, {"measurement": "Aborted Flowers per sq m of the plot", "setting": "tomato; 20 Jan. 2010, ten applications, rates per Table 4", "value": "5 per sq m of the plot"}, {"measurement": "Protection from sunburn damage (in words)", "setting": "tomato; alone or in combination with salicylate, kaolin, glycine betaine", "value": "equivalent to or better than the standard treatments"}, {"measurement": "Number of flowers aborted (in words)", "setting": "tomato; versus standard treatments", "value": "reduce the number of flowers aborted to the same degree as the standard treatments"}, {"measurement": "Fruit Diameter (mm)", "setting": "apple; apple field trial, 12 Dec. 2010, fruit load thinned to approx. 200 fruit per tree, rates per Table 3", "value": 39.84, "unit": "mm"}, {"measurement": "% Fruit Sunburn 1&2", "setting": "apple; apple field trial, 16 Feb. 2010, 1&2 are export grade or commercially acceptable grade apples, rates per Table 3", "value": 87.4, "unit": "%"}, {"measurement": "Yield kg/tree", "setting": "apple; apple field trial, 17 Mar. 2010, rates per Table 3", "value": 42.8, "unit": "kg/tree"}, {"measurement": "Apple Size g/apple", "setting": "apple; [3]", "value": 152, "unit": "g/apple"}, {"measurement": "Marketable Yield kg/tree", "setting": "apple; [3]", "value": 37.4, "unit": "kg/tree"}, {"measurement": "Protecting cell division as measured by fruit diameter, percent sunburn, apple size, yield and marketable yield (in words)", "setting": "apple; apple, alone or in combination with kaolin, salicylate, glycine betaine, or multiples thereof", "value": "as effective as the standard treatments"}, {"measurement": "Bunch Weight (grams)", "setting": "wine grape; wine grape field trial, 10 Mar. 2010, average weight of a bunch, four applications", "value": 94.7, "unit": "grams"}, {"measurement": "Yield kg/ha", "setting": "wine grape; [4]", "value": 9230, "unit": "kg/ha"}, {"measurement": "Yield kg/vine", "setting": "wine grape; [4]", "value": 3.6, "unit": "kg/vine"}, {"measurement": "% Bunches Rating 1 + 2", "setting": "wine grape; wine grape field trial, 10 Mar. 2010, rating 1 = 0%, 2 = 1-5% incidence of sunburn/heat stress on bunches, four applications, rates per Table 6", "value": 96.8, "unit": "%"}, {"measurement": "Protection from heat, water and light stress (bunch rating, yield, bunch weight; in words)", "setting": "wine grape; wine grape, alone or in combination with salicylate, kaolin, or combinations thereof", "value": "equivalent to or better than the standard treatments"}]}, {"molecule": "sebacic acid (decanedioic acid)", "values": [{"measurement": "Growth (mm)", "setting": "tomatoes; tomato plants in pots, 1 × 10−4M, 32 days after treatment, high heat, light and water stress", "value": 25.3, "unit": "mm"}, {"measurement": "Growth compared with the untreated plants (in words)", "setting": "tomatoes; tomato pot trial, Table 7", "value": "statistically significant greater growth"}]}]}
